Data published in paper PMC6010079, “Inhibition of dengue virus replication by novel inhibitors of RNA-dependent RNA polymerase and protease activities” (Journal of Enzyme Inhibition and Medicinal Chemistry, 2017).
“And” between values parts separate entries of the source, which are not always exact repeats. Equal values may be shown once. Read-outs that look alike come from different tables or passages of the source.

How the values were obtained:
[1] = tested on: DENV-2; test: Anti-DENV RNA activity: RT-qPCR of DENV RNA in DENV-2-infected Huh-7 cells; type: cell-based, DENV-2 (DENV type-2 strain 16681); settings: for SI (selectivity index, CC50/EC50 ratio): CC50 in Huh-7 / EC50 DENV-2 RNA
Experimental: Huh-7 cells were seeded in 24-well plate and infected DENV at an MOI of 0.2 for 2 h and followed by test compound treatment at concentration of 0, 1, 5, 10, 25, 50 and 100 µM for 3 days. The total cellular RNA was harvested by RNA extraction kit[32] following manufacturer’s instrument. DENV RNA and cellular mRNA levels were determined by quantitative real-time reverse-transcription polymerase chain reaction (RT-qPCR) with specific primers. The DENV RNA level was normalised by cellular glyceraldehydes-3-phosphate dehydrogenase (GAPDH) mRNA level. The relative DENV RNA level was calculated by StepOne™ Software v2.2.2 (Applied Biosystems, Foster City, CA, USA) following normalisation of cellular glyceraldehydes-3-phosphate dehydrogenase (GAPDH) mRNA level. The zero dose was defined as 100%. The EC50 values were calculated from non-linear regression curve fitting using GraphPad Prism7 software (San Diego, CA, USA). Results were obtained from three independent experiments.

[2] = Cell cytotoxicity assay (MTS); type: cell-based; settings: human, Huh-7 cells, 3 days incubation, read-out: CC50 (half maximal cytotoxicity concentration)
Experimental: The Huh-7 cells were seeded in 96-well and treated with test compound at concentration of 0, 10, 25, 50, 100, 150 and 200 µM. After 3 days incubation, the cell viability was determined by CellTiter 96 AQueous One Solution Cell Proliferation Assay (MTS assay) as previously reported. Briefly, the MTS assay buffer was added to the cultured plate following removal of the culture medium. After 2 h of incubation at 37 °C, the absorbance at 492 nm was measured. The cell viability was calculated from non-linear regression curve fitting using GraphPad Prism7. The zero dose was defined as 100%. Results were obtained from three independent experiments.

[3] = biological target: T1, DENV-2 NS5 RdRp (Dengue virus type 2, UniProt P29990); test: Cell-based RdRp reporter assay (p(+)RLuc-(–)DV-UTRΔC-FLuc + pcDNA-NS5-Myc in Huh-7 cells); settings: 3 days treatment
T1 sequence (P29990 2492-3391): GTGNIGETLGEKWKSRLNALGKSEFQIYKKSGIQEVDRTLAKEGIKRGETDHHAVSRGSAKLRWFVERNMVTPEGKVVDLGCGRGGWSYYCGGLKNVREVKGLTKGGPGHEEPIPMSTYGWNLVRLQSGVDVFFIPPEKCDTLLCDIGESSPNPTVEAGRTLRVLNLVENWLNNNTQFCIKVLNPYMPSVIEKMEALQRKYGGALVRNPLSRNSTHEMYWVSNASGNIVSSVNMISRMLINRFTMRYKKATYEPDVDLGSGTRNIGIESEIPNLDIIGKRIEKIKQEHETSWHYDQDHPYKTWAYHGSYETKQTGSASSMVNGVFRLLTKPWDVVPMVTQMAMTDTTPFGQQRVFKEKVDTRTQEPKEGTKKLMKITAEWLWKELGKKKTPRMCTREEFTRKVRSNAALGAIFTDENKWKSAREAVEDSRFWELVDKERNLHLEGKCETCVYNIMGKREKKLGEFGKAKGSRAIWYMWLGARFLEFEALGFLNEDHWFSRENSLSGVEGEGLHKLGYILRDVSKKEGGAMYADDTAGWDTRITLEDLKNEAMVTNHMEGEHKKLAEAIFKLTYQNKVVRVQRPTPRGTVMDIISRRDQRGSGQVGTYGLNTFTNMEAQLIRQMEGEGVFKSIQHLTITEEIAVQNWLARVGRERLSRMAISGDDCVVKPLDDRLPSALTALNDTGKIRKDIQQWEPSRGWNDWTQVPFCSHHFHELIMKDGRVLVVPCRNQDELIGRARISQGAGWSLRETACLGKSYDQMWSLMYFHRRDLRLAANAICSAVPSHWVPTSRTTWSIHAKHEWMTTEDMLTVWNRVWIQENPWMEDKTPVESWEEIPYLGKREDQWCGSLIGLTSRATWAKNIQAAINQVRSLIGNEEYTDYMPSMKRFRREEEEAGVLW
Experimental: (§1) The cell-based experiments were performed as previously described. Briefly, the Huh-7 cells were transfected with 0.5 µg of p(+)RLuc-(–)DV-UTRΔC-FLuc and DENV NS5 expression vector pcDNA-NS5-Myc followed by compound treatment for 3 days. The RLuc and FLuc activities were analysed by Dual-Glo Luciferase Assay System[37]. The enzyme-based fluorescence-based alkaline phosphatase-coupled polymerase assay (FAPA) was performed as previously described. Briefly, the template was amplified from the cDNA of DENV-2 minus strand 3′-UTR and its RNA was synthesised by the T7 Megascript kit[38]. The 100 nM DENV NS5 protein was incubated with 1, 5 or 10 µM test compound, 100 nM (−) 3′-UTR RNA, 20 µM CTP, GTP, UTP and 20 µM BBT-ATP (Jena Bioscience) in a total volume of 30 µL in assay buffer (50 mM Tris-HCl, pH 7.5, 10 mM KCl, 1 mM MgCl2, 0.3 mM MnCl2, 0.001% Triton X-100 and 10 µM cysteine) at 25 °C for 60 min. The 30 µL of 2.5× stop buffer (200 mM NaCl, 25 mM MgCl2, 1.5 M diethanolamine, pH 10) with 25 nM calf intestinal alkaline phosphatase (Promega) was added to the reaction after 60-min incubation. The fluorescence signal was measured at excitation wavelength of 422 nm and emission wavelength of 566 nm, respectively.

[4] = biological target: T1, DENV-2 NS5 RdRp; test: Enzyme-based RdRp activity assay (FAPA); type: biochemical; set-up: the supernatant containing His-tagged DENV-2 NS5 protein; His; made in house; host or cells: Sf9 insect cells (baculovirus vAc-DENV-NS5); settings: 100 nM DENV NS5 protein, (−) 3′UTR RNA, BBT-ATP, 25 °C, 60 min
Experimental: The DENV-2 NS5 protein purification was performed as previously described. Briefly, Sf9 cells were infected by the recombinant baculovirus vAc-DENV-NS5 at an MOI of 10 for 3 days. The cells were pelleted by centrifugation at 1000×g for 5 min at 4 °C and washed twice with phosphate-buffered saline (PBS). The cells were suspended in 5 mL of binding buffer (20 mM sodium phosphate, pH 7.5, 300 mM NaCl, 20 mM imidazole) containing protease inhibitor cocktail, and then disrupted by sonication. After centrifugation, the supernatant containing His-tagged DENV-2 NS5 protein was subjected to metal affinity chromatography employing the AKTA prime protein purification system. The eluted DENV-2 NS5 protein was concentrated by an Amicon Ultra-15 30 k centrifugal filter device[36] and then dialysed against PBS overnight at 4 °C.
as §1

[5] = tested on: DENV-2; test: Anti-DENV activity in DENV-infected ICR-suckling mouse model; type: in vivo; settings: 6-day-old ICR-suckling mice; for Clinical scores and body weight (DENV-induced pathology): 2.5 × 10^5 pfu DENV-2, within 4 to 6 dpi; for Survival rate: DENV-2, compared to untreated mice
Description: Breeder ICR mice were purchased from BioLasco Taiwan Co. Ltd. The experimental protocol was approved by the Animal Research Committee of Kaohsiung Medical University of Taiwan (IACUC, protocol number 102177). All mice received humane care and fed with standard rodent chew and water ad libitum. Mice were kept under a standard laboratory condition following the Animal Use Protocol of Kaohsiung Medical University. The 6-day-old ICR-suckling mice were intracerebrally injected with DENV-2 followed by intracerebrally injecting saline or test compound at 1, 3, 5 days postinfection (dpi). […] The body weight, clinical scores and survival rate were recorded every day. The mice were sacrificed at 6 dpi.
To access the antiviral activity of compound 3 and 4in vivo, 6-day-old ICR-suckling mice were inoculated with 2.5 × 10^5 pfu of DENV-2 by intracerebral injection and then were administered with compound 3 (10 mg/kg) or 4 (1 mg/kg) by intracerebral injection at 1-, 3- and 5-day postinfection (dpi); inoculation of heat-inactivated DENV-2 (iDENV) served as a mock control.

[6] = biological target: T2, DENV-2 NS3 protease (Dengue virus type 2, UniProt P29990); test: Cell-based DENV protease reporter assay (pEG(MITA)SEAP + pcDNA-NS2B-GSG-NS3-Myc in Huh-7 cells); settings: 3 days treatment, read-out: Cell-based EC50 ± SD (DENV-2 NS3 protease)
T2 construct: DENV protease expression vector pcDNA-NS2B-GSG-NS3-Myc; expressed in transfected cells; host or cells: Huh-7
T2 sequence (P29990 1476-2093): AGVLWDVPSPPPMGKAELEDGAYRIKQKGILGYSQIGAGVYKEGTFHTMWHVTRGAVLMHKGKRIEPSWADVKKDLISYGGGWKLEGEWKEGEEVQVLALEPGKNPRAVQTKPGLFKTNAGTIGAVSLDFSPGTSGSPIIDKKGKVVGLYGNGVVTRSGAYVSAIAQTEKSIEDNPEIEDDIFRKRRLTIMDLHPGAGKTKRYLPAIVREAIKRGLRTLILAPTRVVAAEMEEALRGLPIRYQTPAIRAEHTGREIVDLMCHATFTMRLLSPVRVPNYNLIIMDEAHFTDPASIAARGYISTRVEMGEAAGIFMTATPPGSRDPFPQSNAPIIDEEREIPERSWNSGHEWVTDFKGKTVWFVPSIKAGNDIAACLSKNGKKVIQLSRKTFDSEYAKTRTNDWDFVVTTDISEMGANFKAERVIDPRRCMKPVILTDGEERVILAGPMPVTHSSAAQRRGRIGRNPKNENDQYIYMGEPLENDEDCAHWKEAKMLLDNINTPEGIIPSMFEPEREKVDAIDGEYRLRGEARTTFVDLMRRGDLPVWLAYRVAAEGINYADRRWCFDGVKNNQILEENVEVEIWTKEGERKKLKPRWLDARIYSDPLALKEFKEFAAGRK
Experimental: (§2) For cell-based activity assay, the Huh-7 cells were cotransfected with 0.5 µg of pEG(MITA)SEAP reporter vector and DENV protease expression vector pcDNA-NS2B-GSG-NS3-Myc followed by compound treatment for 3 days. The SEAP activity was analysed by Phospha-Light SEAP Reporter Gene Assay System[40]. The enzyme-based experiment was performed as previously described. Briefly, the 7-amino-4-methylcoumarin (AMC) fluorophore-linked peptide substrate Boc-GRR-AMC[41] and purified DENV NS2B/NS3pro protein were used to analyse DENV NS2B/NS3 protease activity. The 100 nM DENV NS2B/NS3pro protein was incubated with 1, 5 or 10 µM tested compound and 10 µM Boc-GRR-AMC in cleavage buffer (200 mM Tris [pH 9.5], 20% glycerol) for 30 min at 25 °C. The fluorescence signal was detected at excitation wavelength of 380 nm and emission wavelength of 465 nm, respectively.

[7] = biological target: T3, DENV NS2B/NS3pro protein (Dengue virus type 2, UniProt P29990); test: Enzyme-based DENV NS2B/NS3 protease assay (Boc-GRR-AMC substrate); type: biochemical; settings: Enzyme-based EC50 ± SD (DENV-2 NS3 protease), 100 nM NS2B/NS3pro, 10 µM Boc-GRR-AMC, 30 min, 25 °C
T3 construct: made in house; host or cells: Escherichia coli BL21 (DE3)
T3 sequence (P29990 1346-1475): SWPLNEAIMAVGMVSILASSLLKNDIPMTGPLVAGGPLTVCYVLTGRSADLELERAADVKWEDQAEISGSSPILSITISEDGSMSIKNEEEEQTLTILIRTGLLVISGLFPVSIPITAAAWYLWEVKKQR
T3 sequence (P29990 1476-1653): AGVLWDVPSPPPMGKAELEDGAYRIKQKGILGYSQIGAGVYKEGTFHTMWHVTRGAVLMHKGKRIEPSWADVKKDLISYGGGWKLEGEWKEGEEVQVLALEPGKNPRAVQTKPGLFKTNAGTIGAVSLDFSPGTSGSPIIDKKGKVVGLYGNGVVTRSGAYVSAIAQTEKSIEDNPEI
Experimental: The DENV NS2B/NS3pro purification was performed as previously described. Briefly, the pET24b-NS2B-NS3pro plasmid was transformed into competent Escherichia coli BL21 (DE3) and grew in kanamycin (50 µg/mL)-containing LB at 26 °C until OD600 nm reached 0.6. The isopropyl-β-D-thiogalactopyranose was added into the bacterial culture at 0.5 mM for protein induction. After 12-h incubation, cells were collected and subjected to protein purification following previous description.
as §2

[8] = Dengue virus, DENV2, Huh-7, 72 h, Huh-7 cells infected with DENV-2 at MOI 0.2, 3 days treatment, qRT-PCR with primers targeting NS5, normalised to GAPDH, read-out: EC50 ± SD (DENV-2 RNA)
[9] = read-out: EC50 ± SD (DENV-2 RNA), Huh-7 cells infected with DENV-2 at MOI 0.2, 3 days treatment, qRT-PCR with primers targeting NS5, normalised to GAPDH
[10] = Cell-based EC50 ± SD (DENV-2 NS5 RdRp)
[11] = read-out: Enzyme-based EC50 ± SD (DENV-2 NS5 RdRp)
[12] = Huh-7 cells infected with DENV-2 at MOI 0.2, 3 days treatment, qRT-PCR with primers targeting NS5, normalised to GAPDH, read-out: EC50 ± SD (DENV-2 RNA)
[13] = 10 mg/kg intracerebral injection at 1, 3, 5 dpi
[14] = Dengue virus, DENV2, Huh-7, 72 h, read-out: EC50 ± SD (DENV-2 RNA), Huh-7 cells infected with DENV-2 at MOI 0.2, 3 days treatment, qRT-PCR with primers targeting NS5, normalised to GAPDH
[15] = 1 mg/kg intracerebral injection at 1, 3, 5 dpi

| Structure (SMILES) | SI (selectivity index, CC50/EC50 ratio) [1] | EC50 [1, 8] [µM] | EC50 [1, 9] [µM] | CC50 at 3 days [2] [µM] | EC50 [3, 10] | EC50 [4, 11] | EC50 [1, 12] [µM] | EC50 ([3]; read-out: Cell-based EC50 ± SD (DENV-2 NS5 RdRp)) | Clinical scores and body weight (DENV-induced pathology) [5, 13] | Survival rate [5, 13] | EC50 ([4]; Enzyme-based EC50 ± SD (DENV-2 NS5 RdRp)) | EC50 [1, 14] [µM] | EC50 [6] | EC50 [7] | Clinical scores and body weight (DENV-induced pathology) [5, 15] | Survival rate [5, 15] |
| --- | --- | --- | --- | --- | --- | --- | --- | --- | --- | --- | --- | --- | --- | --- | --- | --- |
| CCOC(=O)c1cnn(C)c1N(S(=O)(=O)c1ccc(Cl)cc1)S(=O)(=O)c1ccc(Cl)cc1 [Compound 1, Ethyl 5–(4-chloro-N-((4-chlorophenyl)sulphonyl)phenylsulphonamido)-1-methyl-1H-pyrazole-4-carboxylate] | 17.7 | 11.1 ± 0.21 | 11.7 ± 0.2 | 196 | 8.07 µM and 8.1 µM | 7.78 µM and 7.8 µM | – | – | – | – | – | – | – | – | – | – |
| CCOC(=O)c1cnn(C)c1NS(=O)(=O)c1ccc(-n2cccc2C(=O)c2ccccc2)cc1 [Compound 2, Ethyl 5–(4-(2-benzoyl-1H-pyrrol-1-yl)phenylsulphonamido)-1-methyl-1H-pyrazole-4-carboxylate] | >26.3 | 7.61 ± 0.36 | – | > 200 | 7.22 µM and 7.2 µM | 5.34 µM and 5.3 µM | 7.6 ± 0.4 | – | – | – | – | – | – | – | – | – |
| CCOC(=O)c1cnn(-c2ccccc2)c1N(S(=O)(=O)c1ccc([N+](=O)[O-])cc1)S(=O)(=O)c1ccc([N+](=O)[O-])cc1 [Compound 3, Ethyl 5–(4-nitro-N-((4-nitrophenyl)sulphonyl)phenylsulphonamido)-1-phenyl-1H-pyrazole-4-carboxylate] | >35.1 | 5.66 ± 0.25 | – | > 200 | – | – | 5.7 ± 0.3 | 5.99 µM and 6 µM | reduced DENV-induced pathology | significantly protected the mice | 4.87 µM and 4.9 µM | – | – | – | – | – |
| COC(=O)c1[nH]c2ccc(Cl)cc2c1C(=O)c1cc(OC)c(O)c(OC)c1 [Compound 4, Methyl 5-chloro-3–(4-hydroxy-3,5-dimethoxybenzoyl)-1H-indole-2-carboxylate] | 39.3 | – | – | 181 | – | – | – | – | – | – | – | 4.6 ± 0.3 | 6.71 µM and 6.7 µM | 4.72 µM and 4.7 µM | reduced DENV-induced pathology | significantly protected the mice |
| COC(=O)c1[nH]c2ccc(Cl)cc2c1Cc1cc(OC)cc(OC)c1 [Compound 5, Methyl 5-chloro-3–(3,5-dimethoxybenzyl)-1H-indole-2-carboxylate] | > 27.4 | – | 7.3 ± 0.3 | > 200 | – | – | – | – | – | – | – | 7.28 ± 0.13 | 7.92 µM and 7.9 µM | – | – | – |
